Tested on: IDDM associated autoantibodies in sera
Experiment: ELISA of sera on plate-bound human GAD65 peptides
Assay type: binding
Conditions: for number of IDDM (at risk, pre-IDDM, at onset) patients positive (X) for the peptide (unlabelled sum line): IDDM sera of Table 11
Description: Patient sera and most control sera were those used in a previous study (Kaufman, et al., J. Clin. Investigation, supra) All samples were coded and tested in a blind manner. Peptides were synthesized using an automatic instrument (Applied Biosystems, Foster City, Calif.) and standard conditions. Peptides were dissolved in 60 mM sodium bicarbonate buffer (pH 9.6) at 20 ug/ml and 100 ul of each was added to duplicated wells of a 96 well Nunc-Immuno Plate. Peptides were allowed to bind at 4° C. overnight. The plates were then washed three times with PBS+0.1% Tween 20 (wash buffer), after which the plates were pre-absorbed with 3% BSA in sodium bicarbonate buffer for 0.5 hours at 37° C., or at room temperature overnight. The plates were then washed 5 times with the above wash buffer. 100 ul of serum at a 1/300 dilution in PBS+0.1% Tween 20 and 1% BSA was added to each well and antibodies were allowed to bind for 1 hour at 37° C. The plates were washed 5 times with wash buffer. 100 ul of a 1/600 dilution of HRP-goat anti-human IgG (BRL, Gaithersberg, Md.) was added to each well and allowed to bind for 1 hour at 37° C. The plates were then washed 7 times and 100 ul of substrate buffer was added to each well for 30 minutes at room temperature. The color development was measured at 410 nm using an ELISA plate reader (ICN, Biomedicals, Costa Mesa, Calif.). Positive sera were defined as: OD410 of the sample/negative control ≧3.0.

[1] = IDDM At Onset serum 048, 1/300 dilution
[2] = IDDM At Onset serum 705, 1/300 dilution
[3] = IDDM At Risk serum 052, 1/300 dilution
[4] = IDDM At Risk serum 356, 1/300 dilution
[5] = Pre-IDDM serum 723, 1/300 dilution
[6] = Pre-IDDM serum P.T. (1), 1/300 dilution
[7] = Pre-IDDM serum P.T. (2), 1/300 dilution
[8] = Pre-IDDM serum R.S. (1), 1/300 dilution
[9] = Pre-IDDM serum R.S. (2), 1/300 dilution
[10] = control serum 4380, 1/300 dilution
[11] = control serum 5620, 1/300 dilution
[12] = control serum 5748, 1/300 dilution
[13] = control serum A.P., 1/300 dilution
[14] = control serum S.M., 1/300 dilution

Row | Sequence | immunoreactivity by both control and patient sera | immunoreactivity of serum with GAD65 peptide [1] | immunoreactivity of serum with GAD65 peptide [2] | immunoreactivity of serum with GAD65 peptide [3] | immunoreactivity of serum with GAD65 peptide [4] | immunoreactivity of serum with GAD65 peptide [5] | immunoreactivity of serum with GAD65 peptide [6] | immunoreactivity of serum with GAD65 peptide [7] | immunoreactivity of serum with GAD65 peptide [8] | immunoreactivity of serum with GAD65 peptide [9] | immunoreactivity of serum with GAD65 peptide [10] | immunoreactivity of serum with GAD65 peptide [11] | immunoreactivity of serum with GAD65 peptide [12] | immunoreactivity of serum with GAD65 peptide [13] | immunoreactivity of serum with GAD65 peptide [14] | number of IDDM (at risk, pre-IDDM, at onset) patients positive (X) for the peptide (unlabelled sum line) | also measured
1 | QPPRAAARKAACACDQKPCSC [Peptide 5] | often positive | X (X = positive for immunoreactivity as defined by 00/background^3.0) | X (X = positive for immunoreactivity as defined by 00/background^3.0) | X (X = positive for immunoreactivity as defined by 00/background^3.0) | X (X = positive for immunoreactivity as defined by 00/background^3.0) | X (X = positive for immunoreactivity as defined by 00/background^3.0) | X (X = positive for immunoreactivity as defined by 00/background^3.0) | X (X = positive for immunoreactivity as defined by 00/background^3.0) | X (X = positive for immunoreactivity as defined by 00/background^3.0) | X (X = positive for immunoreactivity as defined by 00/background^3.0) | X (X = positive for immunoreactivity as defined by 00/background^3.0) | X (X = positive for immunoreactivity as defined by 00/background^3.0) | X (X = positive for immunoreactivity as defined by 00/background^3.0) | X (X = positive for immunoreactivity as defined by 00/background^3.0) | X (X = positive for immunoreactivity as defined by 00/background^3.0) | – | immunoreactivity of serum with GAD65 peptide (IDDM At Onset serum 291, 1/300 dilution): X (X = positive for immunoreactivity as defined by 00/background^3.0); immunoreactivity of serum with GAD65 peptide (IDDM At Onset serum S.H., 1/300 dilution): X (X = positive for immunoreactivity as defined by 00/background^3.0); immunoreactivity of serum with GAD65 peptide (IDDM At Risk serum 825, 1/300 dilution): X (X = positive for immunoreactivity as defined by 00/background^3.0); immunoreactivity of serum with GAD65 peptide (IDDM At Risk serum L.I., 1/300 dilution): X (X = positive for immunoreactivity as defined by 00/background^3.0); immunoreactivity of serum with GAD65 peptide (Pre-IDDM serum B.Y. (1), 1/300 dilution): X (X = positive for immunoreactivity as defined by 00/background^3.0); immunoreactivity of serum with GAD65 peptide (Pre-IDDM serum B.Y. (2), 1/300 dilution): X (X = positive for immunoreactivity as defined by 00/background^3.0); immunoreactivity of serum with GAD65 peptide (Pre-IDDM serum J.A., 1/300 dilution): X (X = positive for immunoreactivity as defined by 00/background^3.0); immunoreactivity of serum with GAD65 peptide (Pre-IDDM serum J.B. (1), 1/300 dilution): b (b = borderline response (00/background ?2.5-2.9).); immunoreactivity of serum with GAD65 peptide (Pre-IDDM serum J.B. (2), 1/300 dilution): X (X = positive for immunoreactivity as defined by 00/background^3.0); immunoreactivity of serum with GAD65 peptide (control serum 1688, 1/300 dilution): b (b = borderline response (00/background ?2.5-2.9).); immunoreactivity of serum with GAD65 peptide (control serum FA2, 1/300 dilution): X (X = positive for immunoreactivity as defined by 00/background^3.0); immunoreactivity of serum with GAD65 peptide (control serum FA9, 1/300 dilution): X (X = positive for immunoreactivity as defined by 00/background^3.0); immunoreactivity of serum with GAD65 peptide (control serum FA11, 1/300 dilution): X (X = positive for immunoreactivity as defined by 00/background^3.0); immunoreactivity of serum with GAD65 peptide (control serum H.B., 1/300 dilution): b (b = borderline response (00/background ?2.5-2.9).); immunoreactivity of serum with GAD65 peptide (control serum P.T., 1/300 dilution): X (X = positive for immunoreactivity as defined by 00/background^3.0)
2 | SFDRSTKVIDFHYPNELLQE [Peptide 9] | often positive | X (X = positive for immunoreactivity as defined by 00/background^3.0) | – | b (b = borderline response (00/background ?2.5-2.9).) | X (X = positive for immunoreactivity as defined by 00/background^3.0) | X (X = positive for immunoreactivity as defined by 00/background^3.0) | b (b = borderline response (00/background ?2.5-2.9).) | b (b = borderline response (00/background ?2.5-2.9).) | b (b = borderline response (00/background ?2.5-2.9).) | b (b = borderline response (00/background ?2.5-2.9).) | b (b = borderline response (00/background ?2.5-2.9).) | b (b = borderline response (00/background ?2.5-2.9).) | b (b = borderline response (00/background ?2.5-2.9).) | X (X = positive for immunoreactivity as defined by 00/background^3.0) | X (X = positive for immunoreactivity as defined by 00/background^3.0) | 3 | number of control sera positive (X) for the peptide (unlabelled sum line) (13 control sera): 2
3 | TNMFTYEIAPVFVLLEYVTL [Peptide 14] | – | – | – | b (b = borderline response (00/background ?2.5-2.9).) | – | – | – | – | – | – | – | – | – | – | – | – | –
4 | VNFFRMVISNPAATHQDIDF [Peptide 37] | – | – | X (X = positive for immunoreactivity as defined by 00/background^3.0) | – | – | X (X = positive for immunoreactivity as defined by 00/background^3.0) | – | – | – | – | – | – | – | – | – | 2 | –
5 | VPLQCSALLVREEGLMQNCNQ [Peptide 27] | – | – | – | – | – | – | – | – | – | – | – | – | – | – | b (b = borderline response (00/background ?2.5-2.9).) | – | –

— patent publication US8926966B1 (Regents of the University of California, priority 1990, dated 2015)
